Experimental data from patent US20050227918A1, “Method for assaying susceptibility to cancer therapy in a subject by assaying for tumors of P53” (priority 2004, published 2005).
Entries after “also recorded” stand apart in the source; their conditions may differ. d = 2'-deoxy (DNA); r = 2'-OH (RNA)

What was measured:
H1299 p53-/- cells = experiment: Flow cytometric analysis of apoptosis (sub-G1) and cell cycle in H1299 cells inducibly expressing 72R or 72P wild-type p53; type: cell-based, Human; details: for apoptosis (sub-G1 fraction), 72R versus 72P expressing cells: induced H1299, 5-FU 50 μg/ml, cisplatin, taxol, etoposide, doxorubicin; for apoptosis (sub-G1 fraction), 72R versus 72P expressing cells / difference in apoptosis between 72R and 72P: camptothecin 5 μM, 24 hours; for difference in apoptosis between 72R and 72P: H1299 clones, doxorubicin 1 μg/ml; for apoptosis and cell cycle effect on induction of 72P p53: H1299 induced to express 72P wild-type p53; for apoptosis and cell cycle effect on induction of 72P p53 / apoptosis and cell cycle effect on induction of 72R p53: cisplatin 1 μg/ml, taxol 500 ng/ml, flow cytometry after 24 hours; for apoptosis and cell cycle effect on induction of 72R p53: H1299 induced to express 72R wild-type p53
Description: 72R and 72P wild-type p53 plasmids were constructed by subcloning the inserts from pArgSP53 and pProSP53 (See Matlashewski, et al., Mol. Cell. Biol., 7:961-963 (1987), incorporated by reference) into commercially available pTRE, resulting in pTRE 72R p53 and pTRE 72P p53 plasmids. Human H1299 p53−/− cells, which were maintained in DMEM+10% fetal bovine serum, were transfected with the pTRE 72R p53 and pTRE 72P p53 plasmids in accordance with standard procedures, resulting in H1299 cells lines which inducibly express 72R or 72P p53 protein. These cell lines were grown in DMEM 10% FCS supplemented with 0.5 mg/ml G418 and 0.5 μg/ml puromycin. Expression of 72R or 72P wild-type p53 was induced in H1299 cells by doxycycline or non-induced. […] Control cells were not exposed to drugs. Flow cytometric analysis was then performed after 24 hours as described in Bergamaschi et al., Cancer Cell, 3:387-402 (2003), incorporated by reference. A minimum of six independent 72R-inducible and 72P-inducible clones were analyzed, to obviate the effect of clonal variation.
Further tests examined the cellular responses to the anticancer agents camptothecin and 5-fluorouracil (FU). H1299 cells were induced to express equal levels of 72R or 72P wild-type p53, as described supra, or not induced. […] The cells were then exposed to camptothecin (5 μM) or 5-FU (50 μg/ml). Flow cytometric analysis was performed after 24 hours.
Three experiments were conducted, each analyzing two independent clones of 72R-expressing H1299 cells and two independent clones of 72P-expressing H1299 cells. […] Control cells were not exposed to drugs, and control cells for camptothecin and 5-FU received the drug vehicle only. After 24 hours, apoptosis was determined by flow cytometry as previously described.

Saos-2 cells [1] = experiment: Apoptosis (sub-G1) in Saos-2 cells expressing dominant-negative p73 inhibitors; type: cell-based; details: for sensitivity to apoptosis of Saos-2 cells expressing p73Δ2 and p73DD: dominant-negative p73 inhibitors; for sensitivity to apoptosis of Saos-2 lines expressing p73DD (L371P): inactive point mutation
Experimental: The Saos-2 cells were maintained, as described, supra, and cell lines stably expressing the dominant negative inhibitors were generated by transfection, and then cultivation in the presence of 400 μg/ml of G418. Isolated colonies were ring cloned, and then the expression of transfected sequences was confirmed.
The cells, when in exponential growth phase, received 10 μg of a plasmid encoding p73, and 3 μg of pcDNA3CD20. Twenty-four hours after transfection, cells were harvested, stained with propidiumiodide, and apoptosis was determined as percentage of sub-G1 cells.
In brief, this was determined by seeding 10^2-10^6 cells, in quadruplicate, onto 9 cm tissue culture dishes, and were treated, 24 hours later, for 2 hours, with cytotoxic drugs at various concentrations. Following drug exposure, the cells were grown until visible colonies appeared. They were then fixed in methanol, and stained with Giemsa. Survival was calculated relative to the cells receiving the drug vehicle alone.

p73 = experiment: Western blotting of endogenous p73 steady state levels following drug treatment; type: cell-based; details: 24 hours; for levels of p73 in HN30: head and neck squamous cell line HN30
Experimental: The squamous carcinoma cell lines (“SCC”) tested included cells of the head and neck, cervix, vulva, and immortalized skin […]. […] The cells were exposed to the drugs for 24 hours, after which they were harvested in a lysis buffer (50 mM Tris, 250 mM NaCl, 0.1% Nonidet NP-40, 5 mM EDTA, 1 mM PMSF, with a protease inhibitor cocktail). […] The immunoprecipitates were then resolved, on 10% polyacrylamide gels, and immunoblotted with the antibody, and a secondary anti-mouse light chain antibody conjugated to horseradish peroxidase, which was then visualized using standard methods.

H1299 cells = experiment: Colony-survival assays of H1299 cells expressing p53 variants; type: cell-based, Human
Experimental: The cytotoxicity of anticancer agents was determined in colony-survival assays of H1299 cells using standard protocols, following Bergamaschi, et al., supra, and as per the earlier examples. Briefly, H1299 cells were treated with doxycycline to induce p53 and plated at multiple densities. […] After drug exposure, cells were re-plated in drug free medium and grown until the appearance of visible colonies. Each drug exposure was done in triplicate in at least three experiments.
Further tests were performed to see if 46S influences cellular sensitivity to anticancer drugs in 72R-expressing cells.

p53 [2] = experiment: siRNA and drug effect on p53 levels in squamous carcinoma cell lines (Western blotting); type: cell-based; details: head and neck squamous cells; siRNA 100 nM; doxorubicin 1 μg/ml, taxol 500 ng/ml, cisplatin 10 μg/ml; 24 hours
Experimental: After 24 hours, cell lysates were prepared and analyzed via Western blotting.

p53 [3] = experiment: Western Blot analysis of p53 expression in transfected H1299 cells; type: cell-based, Human; details: cisplatin 1 μg/ml, 24 hours; each of the four variants 46A/46S 72R/72P
Experimental: H1299 cells were cotransfected with pcDNA3 CD20 and plasmids expressing 46A 72R, 46A 72P, 46S 72R, or 46S 72P wild-type p53 or with an empty vector (no p53, as a control), as described supra. […] After 24 hours, the cells were analyzed by flow cytometry. Western Blot analysis of p53 expression was also performed.

Hacat cells = experiment: Drug-induced apoptosis after p53 siRNA; type: cell-based; details: 100 nM siRNA, drugs 48 hours later
Saos-2 cells [4] = type: cell-based
Experimental: The Saos-2 cells which had been engineered to stably express 72R and 72P mutants were then tested, in assays designed to determine whether p53 siRNA impacted drug resistance. Saos-2 cells which expressed 72R173Lp53 were treated with 100 nM of siRNA for p53, or with the same amount of PGL siRNA. […] Survival was assessed via colony forming ability.

p53 [5] = experiment: siRNA effect on steady state levels of p53 mutant in cells expressing 72P 173L or 72R 173L; type: cell-based; details: siRNA 10-100 μM as printed
Experimental: To investigate this small inhibitory RNA (“siRNA”) oligonucleotides were used. The sequences:
The siRNA oligos were transfected into cells, in amounts ranging from 10-100 μM, using commercially available reagents. The siRNA was introduced into cells expressing either the 72P 173L mutant or the 72R173L mutant. Both were shown, supra, to inhibit p73.

p53-p73 complexes = p53-p73 complexes and p73 in Hacat cells after siRNA and drug treatment; type: cell-based; details: 100 nM siRNA
Experimental: As a follow up to the work, supra, experiments were carried out to determine if the siRNA influenced association of the mutant p53 molecules with p73. […] Cell lysates were prepared after 24 hours, and p53-p73 complexes were analyzed, as described supra.

Compound	apoptosis (sub-G1 fraction), 72R versus 72P expressing cells (H1299 p53-/- cells)	difference in apoptosis between 72R and 72P (H1299 p53-/- cells)	sensitivity to apoptosis of Saos-2 cells expressing p73Δ2 and p73DD (Saos-2 cells [1])	sensitivity to apoptosis of Saos-2 lines expressing p73DD (L371P) (Saos-2 cells [1])	levels of p73 in HN30 (p73)	apoptosis and cell cycle effect on induction of 72P p53 (H1299 p53-/- cells)	apoptosis and cell cycle effect on induction of 72R p53 (H1299 p53-/- cells)	sensitivity of cells expressing 46A 72P p53 versus 46S 72P p53 (H1299 cells)	p53 levels (p53 [2])	further results
O=c1[nH]cc(F)c(=O)[nH]1 [5-FU, 5-fluorouracil]	apoptosis was always higher in cells expressing the 72R p53 variant									
CC[C@@]1(O)C(=O)OCc2c1cc1n(c2=O)Cc2cc3ccccc3nc2-1 [camptothecin]	apoptosis was always higher in cells expressing the 72R p53 variant	twofold								
N.N.[Cl][Pt][Cl] [cisplatin]			less sensitive to apoptosis	sensitivity similar to control Saos-2 cells	increased the levels of p73	minimal apoptosis but predominantly G1 arrest	increased sub-G1 fraction and a smaller G1 peak	similar	unaffected	levels of p53 protein after treatment (p53 [3]): increased
COc1cccc2c1C(=O)c1c(O)c3c(c(O)c1C2=O)C[C@@](O)(C(=O)CO)C[C@@H]3O[C@H]1C[C@H](N)[C@H](O)[C@H](C)O1 [doxorubicin]		eightfold	less sensitive to apoptosis	sensitivity similar to control Saos-2 cells	increased the levels of p73			similar	unaffected	p73 level, all cell lines (p73; 1 μg/ml doxorubicin, squamous carcinoma cell lines and Saos-2): increased p73 in all cell lines; cytotoxic effect in cells expressing 46A 72R p53 relative to 46S 72R p53 (H1299 cells): diminished
CC(=O)O[C@H]1C(=O)[C@@]2(C)[C@H]([C@H](OC(=O)c3ccccc3)[C@]3(O)C[C@H](OC(=O)[C@H](O)[C@@H](NC(=O)c4ccccc4)c4ccccc4)C(C)=C1C3(C)C)[C@]1(OC(C)=O)CO[C@@H]1C[C@@H]2O [taxol]			less sensitive to apoptosis	sensitivity similar to control Saos-2 cells	increased the levels of p73	minimal apoptosis but predominantly G1 arrest	increased sub-G1 fraction and a smaller G1 peak		unaffected	
p53 siRNA: small inhibitory RNA oligonucleotides, SEQ ID NO: 1 CUACUUCCUGAAAACAACG(d)TT and SEQ ID NO: 2 CGUUGUUUUCAGGAAGUAGd(TT) (chain 1 CUACUUCCUGAAAACAACGTT; chain 2 CGUUGUUUUCAGGAAGUAGTT; sugars from the 5' end r19 d2, backbone not given here)									reduced steady state levels of p53; also recorded: downregulated	apoptosis after siRNA followed by anticancer drugs, compared to controls (Hacat cells): clear increase in apoptosis; effect of siRNA on drug sensitivity, 143L mutant (Saos-2 cells [4]; Saos-2): similarly small effect; sensitivity to cisplatin and doxyrubicin of cell lines expressing 175H, 179Y, 179R, 245S, 248W, 249S, 273C and 282W (Saos-2 cells [4]; both polymorphic forms): increased sensitivity; steady state levels of p53 polymorphic variants of the mutant (p53 [5]): dose dependent reduction; amount of p53 which associated with p73 (p53-p73 complexes): clear decrease; increase in p73 production associated with drug exposure (p53-p73 complexes): not affected
